Measurements taken from patent US11427574B2, “Compounds for treating Rac-GTPase mediated disorder” (Children's Medical Center Corporation, priority 2015, dated 2022).

How the values were obtained:
ABL1 = ABL1 (Homo sapiens, UniProt P00519); assay: Kinase screening; type: biochemical
Experimental: (§1) Compound 1 was tested for its efficacy in inhibiting activities of 40 kinases and binding with 12 GPCRs both as an antagonist and an agonist.

AKT1 (PKB alpha) = AKT1 (PKB alpha) (Homo sapiens, UniProt P31749); assay: Kinase screening; type: biochemical
Experimental: as §1

AKT2 (PKB beta) = AKT2 (PKB beta) (Homo sapiens, UniProt P31751); assay: Kinase screening; type: biochemical
Experimental: as §1

CDC42 BPA (MRCKA) = CDC42 BPA (MRCKA) (Homo sapiens, UniProt Q5VT25); assay: Kinase screening; type: biochemical
Experimental: as §1

CDC42 BPB (MRCKB) = CDC42 BPB (MRCKB) (Homo sapiens, UniProt Q9Y5S2); assay: Kinase screening; type: biochemical
Experimental: as §1

CDK1/cyclin B = CDK1/cyclin B (Homo sapiens, UniProt P06493); assay: Kinase screening; type: biochemical
Experimental: as §1

CDK5/p25 = CDK5/p25 (Homo sapiens, UniProt Q00535); assay: Kinase screening; type: biochemical
Experimental: as §1

EGFR (ErbB1) = EGFR (ErbB1) (Homo sapiens, UniProt P00533); assay: Kinase screening; type: biochemical
Experimental: as §1

EPHB1 = EPHB1 (Homo sapiens, UniProt P54762); assay: Kinase screening; type: biochemical
Experimental: as §1

FLT3 = FLT3 (Homo sapiens, UniProt P36888); assay: Kinase screening; type: biochemical
Experimental: as §1

FRAP1 (mTOR) = FRAP1 (mTOR) (Homo sapiens, UniProt P42345); assay: Kinase screening; type: biochemical
Experimental: as §1

IGF1R = IGF1R (Homo sapiens, UniProt P08069); assay: Kinase screening; type: biochemical
Experimental: as §1

JAK1 = JAK1 (Homo sapiens, UniProt P23458); assay: Kinase screening; type: biochemical
Experimental: as §1

JAK2 = JAK2 (Homo sapiens, UniProt O60674); assay: Kinase screening; type: biochemical
Experimental: as §1

JAK3 = JAK3 (Homo sapiens, UniProt P52333); assay: Kinase screening; type: biochemical
Experimental: as §1

KIT = KIT (Homo sapiens, UniProt P10721); assay: Kinase screening; type: biochemical
Experimental: as §1

LIMK1 = LIMK1 (Homo sapiens, UniProt P53667); assay: Kinase screening; type: biochemical
Experimental: as §1

LIMK2 = LIMK2 (Homo sapiens, UniProt P53671); assay: Kinase screening; type: biochemical
Experimental: as §1

MAP2K2 (MEK2) = MAP2K2 (MEK2) (Homo sapiens, UniProt P36507); assay: Kinase screening; type: biochemical
Experimental: as §1

MAP3K2 (MEKK2) = MAP3K2 (MEKK2) (Homo sapiens, UniProt Q9Y2U5); assay: Kinase screening; type: biochemical
Experimental: as §1

MAPK3 (ERK1) = MAPK3 (ERK1) (Homo sapiens, UniProt P27361); assay: Kinase screening; type: biochemical
Experimental: as §1

MAPK8 (JNK1) = MAPK8 (JNK1) (Homo sapiens, UniProt P45983); assay: Kinase screening; type: biochemical
Experimental: as §1

MAPK9 (JNK2) = MAPK9 (JNK2) (Homo sapiens, UniProt P45984); assay: Kinase screening; type: biochemical
Experimental: as §1

MYLK (MLCK) = MYLK (MLCK) (Homo sapiens, UniProt Q15746); assay: Kinase screening; type: biochemical
Experimental: as §1

PAK1 = PAK1 (Homo sapiens, UniProt Q13153); assay: Kinase screening; type: biochemical
Experimental: as §1

PAK2 (PAK65) = PAK2 (PAK65) (Homo sapiens, UniProt Q13177); assay: Kinase screening; type: biochemical
Experimental: as §1

PAK3 = PAK3 (Homo sapiens, UniProt O75914); assay: Kinase screening; type: biochemical
Experimental: as §1

PAK4 = PAK4 (Homo sapiens, UniProt O96013); assay: Kinase screening; type: biochemical
Experimental: as §1

PAK6 = PAK6 (Homo sapiens, UniProt Q9NQU5); assay: Kinase screening; type: biochemical
Experimental: as §1

PAK7 (KIAA1264) = PAK7 (KIAA1264) (Homo sapiens, UniProt Q9P286); assay: Kinase screening; type: biochemical
Experimental: as §1

PDGFRA (PDGFR alpha) = PDGFRA (PDGFR alpha) (Homo sapiens, UniProt P16234); assay: Kinase screening; type: biochemical
Experimental: as §1

PIK3C2A (PI3K-C2 alpha) = PIK3C2A (PI3K-C2 alpha) (Homo sapiens, UniProt O00443); assay: Kinase screening; type: biochemical
Experimental: as §1

PIK3C2B (PI3K-C2 beta) = PIK3C2B (PI3K-C2 beta) (Homo sapiens, UniProt O00750); assay: Kinase screening; type: biochemical
Experimental: as §1

PIK3C3 (hVPS34) = PIK3C3 (hVPS34) (Homo sapiens, UniProt Q8NEB9); assay: Kinase screening; type: biochemical
Experimental: as §1

[1] = molecular target: PIK3CA/PIK3R1 (p110 alpha/p85 alpha) (Homo sapiens, UniProt P42336); assay: Kinase screening; type: biochemical
Experimental: as §1

[2] = molecular target: PIK3CD/PIK3R1 (p110 delta/p85 alpha) (Homo sapiens, UniProt O00329); assay: Kinase screening; type: biochemical
Experimental: as §1

ROCK1 = ROCK1 (Homo sapiens, UniProt Q13464); assay: Kinase screening; type: biochemical
Experimental: as §1

ROCK2 = ROCK2 (Homo sapiens, UniProt O75116); assay: Kinase screening; type: biochemical
Experimental: as §1

SRC = SRC (Homo sapiens, UniProt P12931); assay: Kinase screening; type: biochemical
Experimental: as §1

SYK = SYK (Homo sapiens, UniProt P43405); assay: Kinase screening; type: biochemical
Experimental: as §1

SEM cells = assay: Proliferation assay in SEM leukemia cells; type: cell-based; details: compared to Compound 1 (FIG. 12a)
Experimental: Dose Dependent Inhibition of Proliferation The 100 compounds selected from the initial in silico screen were assayed for inhibition of proliferation in two leukemia cell lines, SEM and P12 by Cell Titer Glo. The cells for the proliferation assay were spun down and re-suspended. The cell suspension was then divided and the compound to be tested added in desired concentrations and subsequently plated. Following an incubation period, the Cell Titer Glo reagent (Promega CellTiter 96® Aqueous Non-Radioactive Cell Proliferation Assay) was added and allowed to incubate. The absorbance is subsequently measured at 490 nm using a plate reader. Each compound was analyzed for its effects on cell proliferation.
The lead compound, i.e. Compound 1, was analyzed for its effect on cell proliferation at various doses on three different leukemia cell lines: SEM, P12, and Loucy. In order to quantitate the percentage inhibition of cell proliferation, Cell Titer Glo analysis was completed as described in Example 2 above.
FIGS. 3a-3c show three graphs illustrating the dose dependent inhibition of proliferation of Compound 1 in SEM, P12, and Loucy cells as measured by MTS assay. […] Compound 1 was further analyzed for its effect on cell apoptosis and cell death using a flow based assay using Annexin V staining. […]

SEM cell line = assay: Annexin V flow assay for apoptosis and cell death, SEM; type: cell-based; details: Annexin V staining
From the text: FIGS. 3a-3c show three graphs illustrating the dose dependent inhibition of proliferation of Compound 1 in SEM, P12, and Loucy cells as measured by MTS assay. […] Compound 1 was further analyzed for its effect on cell apoptosis and cell death using a flow based assay using Annexin V staining.
Compound 2 was further analyzed for its effect on cell apoptosis and cell death using a flow based assay using Annexin V staining.

Rac1 = Rac1 (Homo sapiens, UniProt P63000); assay: 2D NMR spectroscopy binding assay; details: 50 μM Rac1 and 250 μM Compound 2
Experimental: (§2) Compound 1 was tested for its efficacy in binding with Rac1 in two independent binding assays, i.e., 2D NMR spectroscopy and Homologous time resolved fluorescence assay (HTRF).
(§3) In the 2D NMR assay, samples containing 50 μM Rac1 and 250 μM or 400 μM Compound 1 were used.
(§4) Compound 2 was tested for its efficacy in binding with Rac1 in two independent binding assays, i.e., 2D NMR spectroscopy and Homologous time resolved fluorescence assay (HTRF).
(§5) In the 2D NMR assay, a sample containing 50 μM Rac1 and 250 μM Compound 2 was used.

Tiam1-Rac complex = Tiam1-Rac complex (Homo sapiens, UniProt P63000); assay: Homologous time resolved fluorescence (HTRF) binding assay
Experimental: as §2, §3, §4, §5

cancer cell = assay: Cellular proliferation assay of SAR analogs; type: cell-based; details: among 48 tested SAR analogs
Experimental: SAR was performed to identify analogs of Compound that have improved properties. 56 Compounds identified in this SAR study were synthesized. Among them, 48 compounds were tested a cellular proliferation assay.

P12-ICHIKAWA cells = assay: In vivo P12-ICHIKAWA leukemia model in NSG mice; details: 50 mg/Kg body weight oral twice daily; supine position, vs vehicle
Experimental: Specifically, cell line P12-ICHIKAWA was marked with a lentiviral vector coexpressing Luciferase and an mCherry fluorescent tag. Sorted mCherry positive P12-ICHIKAWA cells were injected into immunodeficient (NSG) mice. About 3 weeks after injection, based on an estimation of the tumor burden by quantitative assessment of bioluminescence imaging (BLI) in vivo, mice began treatment. Mice received twice daily oral doses of Compound 2 (50 mg/Kg body weight) or placebo. Each of the Compound 2 group and the vehicle group had eight mice. BLI analysis was performed three times a week to assess tumor burden. Toxicity was assessed by evaluating body weight in treated mice vs vehicle group (see FIG. 13a). The experiment was halted at day 18 after beginning of treatment due to the very aggressive nature of the disease in the vehicle group. Mice were imaged in the supine and prone position. FIG. 13b summarizes BLI values normalized to treatment start in both the compound 2 group and the vehicle group in the supine position.

Sequence of KIT (P10721 26-976, species assumed): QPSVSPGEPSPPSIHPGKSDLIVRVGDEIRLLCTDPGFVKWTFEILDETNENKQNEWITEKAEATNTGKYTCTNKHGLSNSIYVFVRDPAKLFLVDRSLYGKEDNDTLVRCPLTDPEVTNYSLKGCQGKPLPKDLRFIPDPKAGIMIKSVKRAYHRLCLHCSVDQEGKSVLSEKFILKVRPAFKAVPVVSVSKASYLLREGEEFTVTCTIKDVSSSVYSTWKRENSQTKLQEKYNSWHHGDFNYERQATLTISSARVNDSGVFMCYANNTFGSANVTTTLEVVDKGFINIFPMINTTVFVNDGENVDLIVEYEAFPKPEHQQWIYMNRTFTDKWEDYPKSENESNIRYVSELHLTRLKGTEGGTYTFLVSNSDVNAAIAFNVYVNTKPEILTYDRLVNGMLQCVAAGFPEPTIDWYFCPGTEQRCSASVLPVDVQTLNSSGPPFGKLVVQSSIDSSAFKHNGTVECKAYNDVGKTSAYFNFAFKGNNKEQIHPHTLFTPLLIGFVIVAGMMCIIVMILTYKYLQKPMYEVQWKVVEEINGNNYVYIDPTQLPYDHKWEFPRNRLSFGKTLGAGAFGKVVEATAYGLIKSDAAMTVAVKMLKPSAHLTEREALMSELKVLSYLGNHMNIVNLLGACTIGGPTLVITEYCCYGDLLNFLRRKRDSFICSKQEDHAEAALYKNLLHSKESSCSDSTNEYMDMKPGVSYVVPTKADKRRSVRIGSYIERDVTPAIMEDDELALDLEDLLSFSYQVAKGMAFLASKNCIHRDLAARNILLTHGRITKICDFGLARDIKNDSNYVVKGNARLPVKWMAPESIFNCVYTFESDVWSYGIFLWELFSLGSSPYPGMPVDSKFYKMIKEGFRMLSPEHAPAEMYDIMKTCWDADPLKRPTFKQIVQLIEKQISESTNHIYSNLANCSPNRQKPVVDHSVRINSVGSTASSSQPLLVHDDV
Sequence of PAK1 (Q13153 whole entry): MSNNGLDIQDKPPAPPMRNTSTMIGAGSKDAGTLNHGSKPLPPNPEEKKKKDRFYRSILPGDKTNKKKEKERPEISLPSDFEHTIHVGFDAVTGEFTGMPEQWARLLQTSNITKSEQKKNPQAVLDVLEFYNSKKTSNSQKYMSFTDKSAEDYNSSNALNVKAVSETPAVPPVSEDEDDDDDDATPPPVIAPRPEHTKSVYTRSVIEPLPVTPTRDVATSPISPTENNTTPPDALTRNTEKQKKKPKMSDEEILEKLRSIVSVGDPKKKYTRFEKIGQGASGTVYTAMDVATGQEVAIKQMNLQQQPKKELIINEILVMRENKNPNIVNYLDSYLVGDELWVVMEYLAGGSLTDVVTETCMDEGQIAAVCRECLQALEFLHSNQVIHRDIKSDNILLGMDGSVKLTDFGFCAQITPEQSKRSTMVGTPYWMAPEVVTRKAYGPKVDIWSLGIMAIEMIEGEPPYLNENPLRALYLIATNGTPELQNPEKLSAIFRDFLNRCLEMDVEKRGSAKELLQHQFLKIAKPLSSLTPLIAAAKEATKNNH
Sequence of PAK4 (O96013 whole entry, species assumed): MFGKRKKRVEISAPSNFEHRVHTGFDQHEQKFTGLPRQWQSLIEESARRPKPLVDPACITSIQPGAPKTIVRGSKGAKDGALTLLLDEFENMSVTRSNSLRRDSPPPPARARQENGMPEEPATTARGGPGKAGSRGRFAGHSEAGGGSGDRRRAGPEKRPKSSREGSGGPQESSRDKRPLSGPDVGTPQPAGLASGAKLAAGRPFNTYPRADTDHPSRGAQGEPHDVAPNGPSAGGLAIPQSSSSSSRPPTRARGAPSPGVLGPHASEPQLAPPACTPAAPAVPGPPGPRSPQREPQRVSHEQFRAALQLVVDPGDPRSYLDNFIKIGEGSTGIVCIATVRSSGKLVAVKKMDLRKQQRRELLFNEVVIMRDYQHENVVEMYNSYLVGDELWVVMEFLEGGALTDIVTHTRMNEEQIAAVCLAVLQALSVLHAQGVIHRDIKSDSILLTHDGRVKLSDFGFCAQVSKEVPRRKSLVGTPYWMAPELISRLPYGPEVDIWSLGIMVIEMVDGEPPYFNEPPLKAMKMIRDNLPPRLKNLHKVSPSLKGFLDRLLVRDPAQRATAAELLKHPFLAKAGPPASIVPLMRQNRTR
Sequence of SRC (P12931 whole entry, species assumed): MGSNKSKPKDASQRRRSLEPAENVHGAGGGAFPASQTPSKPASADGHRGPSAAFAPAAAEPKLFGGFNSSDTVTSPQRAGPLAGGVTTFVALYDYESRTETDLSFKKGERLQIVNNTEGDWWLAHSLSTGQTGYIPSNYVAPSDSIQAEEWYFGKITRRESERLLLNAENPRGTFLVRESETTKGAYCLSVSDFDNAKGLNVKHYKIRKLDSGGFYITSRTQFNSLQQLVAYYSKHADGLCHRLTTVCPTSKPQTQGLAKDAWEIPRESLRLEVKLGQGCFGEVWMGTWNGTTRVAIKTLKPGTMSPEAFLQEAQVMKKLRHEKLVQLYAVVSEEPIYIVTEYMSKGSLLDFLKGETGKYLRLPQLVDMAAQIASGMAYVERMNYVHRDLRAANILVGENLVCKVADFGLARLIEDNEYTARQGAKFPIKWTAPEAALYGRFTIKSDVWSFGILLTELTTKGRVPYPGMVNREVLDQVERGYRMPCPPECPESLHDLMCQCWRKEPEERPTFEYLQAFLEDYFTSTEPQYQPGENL
Sequence of MAP2K2 (MEK2) (P36507 whole entry, species assumed): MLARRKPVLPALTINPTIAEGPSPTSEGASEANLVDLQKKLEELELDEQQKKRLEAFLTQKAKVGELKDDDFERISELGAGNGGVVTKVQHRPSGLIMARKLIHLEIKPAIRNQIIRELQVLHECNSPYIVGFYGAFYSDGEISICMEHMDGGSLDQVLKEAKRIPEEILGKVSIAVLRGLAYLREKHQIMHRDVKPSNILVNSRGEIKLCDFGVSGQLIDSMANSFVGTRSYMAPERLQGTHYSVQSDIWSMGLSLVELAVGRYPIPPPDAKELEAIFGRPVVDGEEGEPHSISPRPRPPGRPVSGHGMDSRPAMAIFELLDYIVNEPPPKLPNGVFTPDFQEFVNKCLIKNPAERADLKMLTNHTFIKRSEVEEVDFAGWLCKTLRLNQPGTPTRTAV
Sequence of PAK3 (O75914 whole entry, species assumed): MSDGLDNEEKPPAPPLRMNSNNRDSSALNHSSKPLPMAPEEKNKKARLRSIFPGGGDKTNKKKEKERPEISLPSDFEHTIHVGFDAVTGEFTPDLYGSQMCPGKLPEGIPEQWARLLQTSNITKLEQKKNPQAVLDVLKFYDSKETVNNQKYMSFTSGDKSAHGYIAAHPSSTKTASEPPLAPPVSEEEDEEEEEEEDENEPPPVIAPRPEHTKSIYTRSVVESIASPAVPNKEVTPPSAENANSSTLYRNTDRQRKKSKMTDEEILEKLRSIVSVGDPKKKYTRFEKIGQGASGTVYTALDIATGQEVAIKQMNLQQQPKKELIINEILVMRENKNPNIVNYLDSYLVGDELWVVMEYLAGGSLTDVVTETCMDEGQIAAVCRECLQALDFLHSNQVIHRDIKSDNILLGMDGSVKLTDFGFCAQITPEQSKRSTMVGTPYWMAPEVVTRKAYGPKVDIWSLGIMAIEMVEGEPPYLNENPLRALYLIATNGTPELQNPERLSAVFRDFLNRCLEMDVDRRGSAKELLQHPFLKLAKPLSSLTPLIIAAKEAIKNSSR
Sequence of LIMK1 (P53667 whole entry, species assumed): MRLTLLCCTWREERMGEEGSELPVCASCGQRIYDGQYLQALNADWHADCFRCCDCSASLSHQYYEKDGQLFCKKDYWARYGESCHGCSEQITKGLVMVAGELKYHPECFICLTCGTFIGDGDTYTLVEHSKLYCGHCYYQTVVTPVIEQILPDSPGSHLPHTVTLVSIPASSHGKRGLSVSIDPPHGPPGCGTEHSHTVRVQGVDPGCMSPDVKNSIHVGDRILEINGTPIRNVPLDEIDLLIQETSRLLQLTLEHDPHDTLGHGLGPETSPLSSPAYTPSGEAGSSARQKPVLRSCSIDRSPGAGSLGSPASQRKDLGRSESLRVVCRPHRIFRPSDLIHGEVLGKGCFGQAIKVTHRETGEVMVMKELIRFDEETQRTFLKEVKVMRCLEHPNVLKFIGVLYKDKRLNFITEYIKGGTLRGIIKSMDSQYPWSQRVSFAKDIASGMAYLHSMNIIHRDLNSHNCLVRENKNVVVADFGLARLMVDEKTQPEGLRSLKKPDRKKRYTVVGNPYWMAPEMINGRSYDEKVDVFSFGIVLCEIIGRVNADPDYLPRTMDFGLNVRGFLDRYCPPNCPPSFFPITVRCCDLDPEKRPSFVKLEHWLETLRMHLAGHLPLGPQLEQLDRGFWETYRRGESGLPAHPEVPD
Sequence of PAK7 (KIAA1264) (Q9P286 whole entry, species assumed): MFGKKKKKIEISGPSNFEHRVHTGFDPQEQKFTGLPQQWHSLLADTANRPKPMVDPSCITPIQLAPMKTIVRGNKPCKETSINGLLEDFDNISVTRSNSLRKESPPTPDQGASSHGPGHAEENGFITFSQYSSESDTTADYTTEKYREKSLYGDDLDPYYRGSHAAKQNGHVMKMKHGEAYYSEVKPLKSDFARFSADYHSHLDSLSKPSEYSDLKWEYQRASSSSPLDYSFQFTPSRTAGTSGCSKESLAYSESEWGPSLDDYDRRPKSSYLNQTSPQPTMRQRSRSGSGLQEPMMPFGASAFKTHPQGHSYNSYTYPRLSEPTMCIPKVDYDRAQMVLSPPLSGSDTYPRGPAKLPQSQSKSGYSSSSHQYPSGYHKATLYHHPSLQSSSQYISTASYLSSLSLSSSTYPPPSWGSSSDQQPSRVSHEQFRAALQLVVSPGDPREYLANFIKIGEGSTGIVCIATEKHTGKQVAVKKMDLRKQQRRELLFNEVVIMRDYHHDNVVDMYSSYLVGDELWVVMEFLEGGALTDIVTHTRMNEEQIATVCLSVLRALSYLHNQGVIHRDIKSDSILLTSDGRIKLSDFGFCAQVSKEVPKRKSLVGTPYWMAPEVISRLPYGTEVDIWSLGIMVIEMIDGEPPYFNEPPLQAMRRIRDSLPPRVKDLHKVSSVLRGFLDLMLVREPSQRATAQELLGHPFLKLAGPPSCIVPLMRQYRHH

Compound: CCN(CC)CCCC(C)Nc1nc(C)cc(Nc2ccc3nc(C)cc(N)c3c2)n1.Cl.Cl.Cl (racemic) [NSC23766, N6-[2-[[4-(diethylamino)-1-methylbutyl]amino]-6-methyl-4-pyrimidinyl]-2-methyl-4,6-quinolinediamine trihydrochloride, reference compound]
- inhibition percentage (ABL1): 19.3 percentage
- inhibition percentage (AKT1 (PKB alpha)): −23.3 percentage
- inhibition percentage (AKT2 (PKB beta)): −22.9 percentage
- inhibition percentage (CDC42 BPA (MRCKA)): −1.8 percentage
- inhibition percentage (CDC42 BPB (MRCKB)): −4.6 percentage
- inhibition percentage (CDK1/cyclin B): 1.3 percentage
- inhibition percentage (CDK5/p25): 11.4 percentage
- inhibition percentage (EGFR (ErbB1)): 24.6 percentage
- inhibition percentage (EPHB1): 19.8 percentage
- inhibition percentage (FLT3): 31.4 percentage
- inhibition percentage (FRAP1 (mTOR)): 27.0 percentage
- inhibition percentage (IGF1R): 42.9 percentage
- inhibition percentage (JAK1): 50.6 percentage
- inhibition percentage (JAK2): 37.7 percentage
- inhibition percentage (JAK3): 21.9 percentage
- inhibition percentage (KIT): 26.3 percentage
- inhibition percentage (LIMK1): −14.2 percentage
- inhibition percentage (LIMK2): −3.5 percentage
- inhibition percentage (MAP2K2 (MEK2)): 20.7 percentage
- inhibition percentage (MAP3K2 (MEKK2)): 14.3 percentage
- inhibition percentage (MAPK3 (ERK1)): 11.5 percentage
- inhibition percentage (MAPK8 (JNK1)): −1.1 percentage
- inhibition percentage (MAPK9 (JNK2)): −8.9 percentage
- inhibition percentage (MYLK (MLCK)): 1.6 percentage
- inhibition percentage (PAK1): 24.4 percentage
- inhibition percentage (PAK2 (PAK65)): 0.3 percentage
- inhibition percentage (PAK3): 6.3 percentage
- inhibition percentage (PAK4): −0.2 percentage
- inhibition percentage (PAK6): 8.9 percentage
- inhibition percentage (PAK7 (KIAA1264)): 4.9 percentage
- inhibition percentage (PDGFRA (PDGFR alpha)): 34.8 percentage
- inhibition percentage (PIK3C2A (PI3K-C2 alpha)): −3.3 percentage
- inhibition percentage (PIK3C2B (PI3K-C2 beta)): −1.8 percentage
- inhibition percentage (PIK3C3 (hVPS34)): −17.8 percentage
- inhibition percentage [1]: −0.4 percentage
- inhibition percentage [2]: −5.8 percentage
- inhibition percentage (ROCK1): −2.0 percentage
- inhibition percentage (ROCK2): −14.7 percentage
- inhibition percentage (SRC): 43.6 percentage
- inhibition percentage (SYK): 39.4 percentage

Compound: CCc1ccc(CN(C)C(=O)CCc2nnc(CCc3c[nH]c4ccccc34)o2)cc1 [Compound 2]
- efficacy in inhibiting proliferation of SEM cells (SEM cells): improved efficacy
- cell apoptosis and cell death (SEM cell line): caused cells apoptosis and cell death
- binding to Rac1 by 2D NMR (Rac1): did not indicate any significant binding
- binding in the HTRF assay (Tiam1-Rac complex): no binding
- inhibition of cancer cell proliferation (cancer cell): strongest inhibition
- bioluminescence in the mice (P12-ICHIKAWA cells): significantly reduced
